Here are results for 5 compounds from paper PMC2917178 (Biochemistry, 2010).

“Also recorded” adds a separate entry of the source. Where two headings read alike, the source gives them in different places.

The test system of one data set is p300. The note with it: cited from earlier work.
In the next data set the test system is Rtt109. Description: HAT activity with fluorescein-labeled Vps75. It counts as biochemical, yeast. The settings on record: fluorescein-5-maleimide labeled Vps75, 1:1 label to Vps75.
The target of data set [1] is T1, Rtt109-Vps75 (Saccharomyces cerevisiae, UniProt P53853+Q07794).
T1 sequence (Q07794 1-436): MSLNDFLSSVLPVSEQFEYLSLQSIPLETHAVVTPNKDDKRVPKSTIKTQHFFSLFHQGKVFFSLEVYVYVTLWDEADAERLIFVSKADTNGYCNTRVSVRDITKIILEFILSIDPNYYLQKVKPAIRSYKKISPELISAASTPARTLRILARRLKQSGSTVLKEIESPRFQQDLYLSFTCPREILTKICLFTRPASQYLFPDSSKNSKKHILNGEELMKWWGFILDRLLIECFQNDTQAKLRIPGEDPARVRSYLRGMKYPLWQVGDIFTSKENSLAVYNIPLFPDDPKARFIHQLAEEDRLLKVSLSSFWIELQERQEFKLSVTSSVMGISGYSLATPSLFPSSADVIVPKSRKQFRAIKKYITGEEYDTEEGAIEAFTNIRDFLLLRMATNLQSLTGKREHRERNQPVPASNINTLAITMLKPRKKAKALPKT
T1 sequence (P53853 1-264 partner): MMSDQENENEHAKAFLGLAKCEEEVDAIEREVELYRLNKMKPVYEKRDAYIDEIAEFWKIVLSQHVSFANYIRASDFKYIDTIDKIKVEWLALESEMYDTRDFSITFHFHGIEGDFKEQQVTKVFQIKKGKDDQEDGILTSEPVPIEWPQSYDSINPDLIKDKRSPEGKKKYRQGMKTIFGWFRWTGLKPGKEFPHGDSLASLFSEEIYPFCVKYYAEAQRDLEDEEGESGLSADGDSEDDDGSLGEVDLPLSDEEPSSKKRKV
Briefly: Isothermal titration calorimetry into Rtt109-Vps75. It is filed as binding, yeast (Saccharomyces cerevisiae). (In ITC the heat of successive injections is recorded.)

Data set [2] deals with T1, Rtt109-Vps75. Briefly: CoA product inhibition of Rtt109-Vps75. It counts as biochemical, yeast (Saccharomyces cerevisiae).
Data set [3] is described as follows: Stability of Rtt109 alone. It counts as physicochemical. The note with it: without AcCoA or Vps75, 25°C.
The target of data set [4] is Rtt109 D287N (with Vps75) (Saccharomyces cerevisiae, UniProt P53853+Q07794, D287N). It is filed as biochemical, yeast (Saccharomyces cerevisiae). The settings on record: AcCoA varied 0.5-30 μM, 400 μM H3 peptide, 0.1-0.5 μM Rtt109 variant, 4 μM Vps75, 50 mM Tris pH 7.5, 25 °C.
In data set [5] the target is Rtt109 D288N (with Vps75) (Saccharomyces cerevisiae, UniProt P53853+Q07794, D288N). It counts as biochemical, yeast (Saccharomyces cerevisiae). The note with it: AcCoA varied 0.5-30 μM, 400 μM H3 peptide, 0.1-0.5 μM Rtt109 variant, 4 μM Vps75, 50 mM Tris pH 7.5, 25 °C.
Chain of Rtt109 D288N (with Vps75) (Q07794 whole entry D288N, one chain of several): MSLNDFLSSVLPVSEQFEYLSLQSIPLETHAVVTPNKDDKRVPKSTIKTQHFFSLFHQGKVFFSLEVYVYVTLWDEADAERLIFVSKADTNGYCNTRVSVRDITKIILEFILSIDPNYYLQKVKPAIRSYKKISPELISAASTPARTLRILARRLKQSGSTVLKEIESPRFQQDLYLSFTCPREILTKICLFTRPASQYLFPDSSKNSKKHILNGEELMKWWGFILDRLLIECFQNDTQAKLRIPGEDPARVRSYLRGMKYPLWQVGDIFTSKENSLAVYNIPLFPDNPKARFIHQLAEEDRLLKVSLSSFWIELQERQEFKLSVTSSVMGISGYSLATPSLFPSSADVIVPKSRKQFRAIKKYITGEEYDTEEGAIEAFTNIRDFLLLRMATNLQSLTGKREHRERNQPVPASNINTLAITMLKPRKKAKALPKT

Chain of Rtt109 D287N (with Vps75) (Q07794 whole entry D287N, one chain of several): as the sequence (Q07794 whole entry D288N, one chain of several) above, with D287N, N288D counted along it

For the compound “p300: mammalian HAT, structural homolog of Rtt109”, the “pKa of ionizable group required for catalysis” value in the data set with p300 is given as 8.4.
Consider “labeled Vps75: Vps75 labeled with fluorescein-5-maleimide, 1:1”, for which the “loss in HAT activity on fluorescein labeling” value with Rtt109 is given as less than 2 fold.
Broadly, the Kd is the concentration at which binding is half-saturated. In general, Ki refers to a measure of affinity in units of concentration, obtained from inhibition or displacement. On Rtt109-Vps75 [1], `CC(C)(COP(=O)(O)OP(=O)(O)OC[C@H]1O[C@@H](n2cnc3c(N)ncnc32)[C@H](O)[C@@H]1OP(=O)(O)O)[C@@H](O)C(=O)NCCC(=O)NCCS` [CoA, Coenzyme A] yielded a Kd of 43 ± 5 µM. At Rtt109-Vps75 [2], this compound returned a Ki of 110 ± 20 µM. The “product inhibition pattern versus AcCoA” value at Rtt109-Vps75 [2] (varied AcCoA, fixed CoA, 5 μM full-length H3, double reciprocal plot) was “binds competitively with AcCoA; also recorded: competitive inhibition”.
Regarding “Rtt109: yeast histone acetyltransferase, Regulator of Ty1 Transposition 109”, the “stability of protein alone” value in data set [3] is “unstable and precipitates at 25 °C; also recorded: unstable protein and is highly prone to aggregation”.
One may read the Km as the concentration of substrate that gives half-maximal velocity. `CC(=O)SCCNC(=O)CCNC(=O)[C@H](O)C(C)(C)COP(=O)(O)OP(=O)(O)OC[C@H]1O[C@@H](n2cnc3c(N)ncnc32)[C@H](O)[C@@H]1OP(=O)(O)O` [AcCoA, acetyl-Coenzyme A] yielded a Kd at Rtt109-Vps75 [1] (167 μM AcCoA titrated into 5.8 μM Rtt109-Vps75, 50 mM Tris pH 7.5 at 25°C, 5% glycerol, 50 mM NaCl, 2 mM β-mercaptoethanol, 1 mM EDTA, one-site model) of 1.4 ± 0.3 µM. Besides, the “binding affinity for AcCoA over CoA” value on Rtt109-Vps75 [1] (ratio of binding affinities, Rtt109-Vps75) was found to be 30 fold. For the same compound, in data set [4], the Km worked out at 0.7 ± 0.3 µM, the kcat is 1.2 ± 0.1 × 10^-2 s^-1 and the kcat/Km was 1.7 ± 0.7 × 10^4 M^-1s^-1. In data set [5], the Km came out at 4.9 ± 0.9 µM, the kcat is given as 2.8 ± 0.2 × 10^-3 s^-1 and the kcat/Km is listed as 6 ± 1 × 10^2 M^-1s^-1.
